Measurements from patent US20250163029A1, “PYRIDONE OR PYRIMIDONE DERIVATIVE AND APPLICATION THEREOF” (Medshine Discovery Inc., priority 2022, published 2025).
Where a name gives a salt, the structure may show the parent alone.

How the values were obtained:
[1] = system: plasma protein; test: Plasma protein binding rate (PPB), cynomolgus monkeys; assay type: in vitro ADME; conditions: Cynomolgus monkey plasma, 2 μM, 4 hours dialysis
Experimental: (§1) 597 μL of blank plasma from CD-1 mice, SD rats, beagle dogs, cynomolgus monkeys and humans were weighed, and the working solution of the assay compound or the working solution of warfarin was added, so that the final concentration of the assay compound and warfarin in the plasma sample was 2 μM. The samples were mixed thoroughly. The final concentration of DMSO as an organic phase was 0.5%; 50 μL of the assay compound and warfarin plasma samples were pipetted into a sample receiving plate, and the corresponding volume of blank plasma or buffer was immediately added, so that the final volume of each sample well was 100 μL, and the volume ratio of plasma:dialysis buffer was 1:1, and then the stop solution was added to these samples. The samples were used as the To sample for recovery and stability determination. The assay compound and warfarin plasma samples were added to the dosing end of each dialysis well, and blank dialysis buffer was added to the receiving end corresponding to the dialysis well. Then the dialysis plate was sealed with a gas permeable membrane and placed in a humidified 5% CO2 incubator, and incubated with shaking at 37° C. and 100 rpm for 4 hours. […] After protein precipitation, all samples were analyzed by LC/MS/MS, and the free rate (% Unbound) of the compound was calculated by the following formula: […]

[2] = system: plasma protein; test: Plasma protein binding rate (PPB), humans; assay type: in vitro ADME; conditions: Human plasma, 2 μM, 4 hours dialysis
Experimental: as §1

[3] = in vivo; design: species or system Sprague-Dawley strain rats; conditions: Sprague-Dawley, rat
Experimental: Objective of assay: The druggability of compounds was evaluated by measuring their pharmacokinetic properties in different animal species.
Assay Materials: C57BL6/J strain mice, Sprague-Dawley strain rats and beagle dogs.
The pharmacokinetic characteristics of the compound after intravenous and oral administration were assayed in animals using a standard protocol. In the assay, the candidate compound was prepared into a clear solution (intravenous injection) or a homogeneous suspension (oral administration) and administrated to the animal once. Whole blood samples were collected within 24 hours, and centrifuged at 3200 g for 10 minutes. The supernatant was separated to obtain a plasma sample. The blood concentration was quantitatively analyzed by LC-MS/MS analysis method, and pharmacokinetic parameters such as peak concentration, time to peak, clearance rate, half-life, and area under the drug-time curve were calculated.

[4] = system: plasma protein; test: Plasma protein binding rate (PPB), beagle dogs; assay type: in vitro ADME; conditions: 2 μM, 4 hours dialysis
Experimental: as §1

Cn1cnc(Cc2cn(Cc3cc(F)c(F)cc3F)c(Nc3cc4cn(C)nc4cc3Cl)nc2=O)n1 [Compound 4 hydrochloride]
PPB_Unbound (%) [1]: 18.8%
PPB_Unbound (%) [2]: 24.3%
Vd ([3]; iv, 0.25 mg/kg): 0.62 L/kg
clearance ([3]; iv, 0.25 mg/kg): 4.1 mL/min/kg
half-life ([3]; iv, 0.25 mg/kg): 2.2 h
AUC ([3]; iv, 0.25 mg/kg, AUC): 2.4 µM·h
AUC ([3]; iv, 0.25 mg/kg, AUCfree): 0.11 µM·h
Cmax ([3]; po, 0.5 mg/kg): 530 nM
Tmax ([3]; po, 0.5 mg/kg): 2 h
bioavailability ([3]; po, 0.5 mg/kg): 103%
half-life ([3]; po, 0.5 mg/kg): 3.4 h
AUC ([3]; po, 0.5 mg/kg, AUC): 4.8 µM·h
AUC ([3]; po, 0.5 mg/kg, AUCfree): 0.22 µM·h
PPB_Unbound (%) [4]: 23.9%
